# Read-outs that look alike come from different tables or passages of the source. Square brackets hold non-standard residues; d marks the D form. Peptide text beside a SMILES is read from it.
# What was measured:
# [1] = tested on: Enterobacter cloacae clinical strains; assay type: cell-based; design: Minimum inhibitory concentration: unit: μg/ml; conditions: microdilution, Muller Hinton broth-cation adjusted, 0.02% BSA, 0.2% acetic acid
# Protocol: (§1) Minimum inhibition concentrations (MICs) were determined against Escherichia coli (ATCC 25922), Staphylococcus aureus (ATCC 25923), Klebsiella pneumoniae (ATCC 10031) and Pseudomonas aeruginosa (ATCC 27853). Also clinical strains of E. coli, K. pneumoniae, E. cloacae, P. aeruginosa, Serratia marcescens, Proteus mirabilis, S. pneumoniae, Acinetobacter baumannii, A. johnsonii and S. aureus were used for MICs assays. Additionally, clinical strains of yeast including Candida albicans, C. glabrata, C. parapsilosis and C. quillermondiae were used. The susceptibility of these microorganisms to Chain peptides were determined using micro broth dilution assay. Colonies of the respective microorganism from Muller Hinton (MH) agar plates incubated overnight were suspended in MH broth media and final concentration of microorganism was adjusted to 5.0×10^5 cfu/ml. An aliquot of 10 μl of each Chain peptide, or gentamicin, tetracycline as reference antibiotics were added in differing concentrations along with 90 μl of bacterial suspension to 96 well polypropylene plates and incubated at 37° C. for 20 to 24 hours. Concentrations of Chain peptides and reference antibiotics ranged from 0.125 to 128 μg/ml and the MICs were recorded as the lowest concentration with no visual growth of bacteria. Similarly, antifungal MICs were tested in Potato dextrose broth.
# (§2) Clinical strains of yeasts including Candida albicans, C. glabrata, C. parapsilosis and C. quillermondiae were also tested with the 12 Chain peptides. The minimum inhibitory concentration (MICs) varied between these peptides and are presented in Tables 4a, 4b, 4c and 5a, 5b, 5c. Peptides Chain 105, 201 and 308 are broad spectrum antimicrobials with MICs between 0.5-32 μg/ml against all the bacteria and yeasts tested, except Serratia marcescens and Proteus mirabilis, against which the MICs were between 64-128 μg/ml. Peptide Chain 306 has narrow spectrum activity against E. coli at 1 μg/ml and for the rest of the bacterial strains at >32 μg/ml (FIG. 10c).
# [2] = tested on: Proteus mirabilis clinical strains; assay type: cell-based; design: Minimum inhibitory concentration: unit: μg/ml; conditions: microdilution, Muller Hinton broth-cation adjusted, 0.02% BSA, 0.2% acetic acid
# Protocol: as §1, §2
# [3] = tested on: Serratia marcescens clinical strains; assay type: cell-based; design: Minimum inhibitory concentration: unit: μg/ml; conditions: microdilution, Muller Hinton broth-cation adjusted, 0.02% BSA, 0.2% acetic acid
# Protocol: as §1, §2
# [4] = tested on: Staphylococcus aureus clinical strains; assay type: cell-based; design: Minimum inhibitory concentration: unit: μg/ml; conditions: microdilution, Muller Hinton broth-cation adjusted, 0.02% BSA, 0.2% acetic acid
# Protocol: as §1, §2
# [5] = tested on: Streptococcus pneumoniae clinical strains; assay type: cell-based; design: Minimum inhibitory concentration: unit: μg/ml; conditions: microdilution, Muller Hinton broth-cation adjusted, 0.02% BSA, 0.2% acetic acid
# Protocol: as §1, §2
# [6] = tested on: Candida albicans clinical strains; assay: MIC, clinical yeast strains; assay type: cell-based; design: unit: μg/ml
# Method in brief: (§3)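 Clinical isolates tested by broth microdilution at 5.0×10^5 cfu/ml with peptides at 0.125–128 μg/ml, incubated 20–24 h at 37° C. Bacteria were grown in Mueller Hinton broth and yeasts in potato dextrose broth. MIC is the lowest concentration showing no visible growth.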
# [7] = tested on: C. glabrata clinical strains; assay: MIC, clinical yeast strains; assay type: cell-based, Candida glabrata; design: unit: µg/ml
# Method in brief: as §3
# [8] = tested on: C. parapsilosis clinical strains; assay: MIC, clinical yeast strains; assay type: cell-based, Candida parapsilosis; design: unit: µg/ml
# Method in brief: as §3
# [9] = tested on: C. quillermondiae clinical strains; assay: MIC, clinical yeast strains; assay type: cell-based, Candida quillermondiae; design: unit: μg/ml; conditions: C. quillermondiae clinical yeast strain 1
# Method in brief: as §3
# [10] = tested on: Escherichia coli clinical strains; assay type: cell-based; conditions: microdilution, Muller Hinton broth-cation adjusted, 0.02% BSA, 0.2% acetic acid
# Protocol: as §1, §2
# [11] = tested on: Klebsiella pneumoniae clinical strains; assay type: cell-based; conditions: microdilution, Muller Hinton broth-cation adjusted, 0.02% BSA, 0.2% acetic acid
# Protocol: as §1, §2
# [12] = tested on: Pseudomonas aeruginosa clinical strains; assay type: cell-based; conditions: microdilution, Muller Hinton broth-cation adjusted, 0.02% BSA, 0.2% acetic acid
# Protocol: as §1, §2
smiles,measurement,setting,value
CC[C@@H](C)[C@@H](N)C(=O)N[C@H](Cc1c[nH]c2ccccc12)C(=O)N[C@H](CCCCN)C(=O)N[C@H](CCCNC(=N)N)C(=O)N[C@H](Cc1ccccc1)C(=O)N[C@H](CCCNC(=N)N)C(=O)N[C@H](CC(C)C)C(=O)N[C@H](Cc1ccccc1)C(=O)N[C@H](CCCCN)C(=O)N[C@H](CCCCN)C(=O)N[C@H](Cc1c[nH]c2ccccc12)C(=O)O [Chain304D] (H-[dI][dW][dK][dR][dF][dR][dL][dF][dK][dK][dW]-OH),Minimum inhibitory concentration,[1]; Enterobacter cloacae clinical strain 1,64
same,Minimum inhibitory concentration,[1]; Enterobacter cloacae clinical strain 2,64
same,Minimum inhibitory concentration,[1]; Enterobacter cloacae clinical strain 3,128
same,Minimum inhibitory concentration,[1]; Enterobacter cloacae clinical strain 4,128
same,Minimum inhibitory concentration,[1]; Enterobacter cloacae clinical strain 5,32
same,Minimum inhibitory concentration,[2]; Proteus mirabilis clinical strain 1,>128
same,Minimum inhibitory concentration,[2]; Proteus mirabilis clinical strain 2,>128
same,Minimum inhibitory concentration,[2]; Proteus mirabilis clinical strain 3,>128
same,Minimum inhibitory concentration,[2]; Proteus mirabilis clinical strain 4,>128
same,Minimum inhibitory concentration,[2]; Proteus mirabilis clinical strain 5,>128
same,Minimum inhibitory concentration,[3]; Serratia marcescens clinical strain 1,>128
same,Minimum inhibitory concentration,[3]; Serratia marcescens clinical strain 2,>128
same,Minimum inhibitory concentration,[3]; Serratia marcescens clinical strain 3,>128
same,Minimum inhibitory concentration,[3]; Serratia marcescens clinical strain 4,>128
same,Minimum inhibitory concentration,[3]; Serratia marcescens clinical strain 5,>128
same,Minimum inhibitory concentration,[4]; Staphylococcus aureus clinical strain 1,32
same,Minimum inhibitory concentration,[4]; Staphylococcus aureus clinical strain 2,32
same,Minimum inhibitory concentration,[4]; Staphylococcus aureus clinical strain 3,16
same,Minimum inhibitory concentration,[4]; Staphylococcus aureus clinical strain 4,16
same,Minimum inhibitory concentration,[4]; Staphylococcus aureus clinical strain 5,16
same,Minimum inhibitory concentration,[5]; Streptococcus pneumoniae clinical strain 1,128
same,Minimum inhibitory concentration,[5]; Streptococcus pneumoniae clinical strain 2,128
same,Minimum inhibitory concentration,[5]; Streptococcus pneumoniae clinical strain 3,128
same,Minimum inhibitory concentration,[5]; Streptococcus pneumoniae clinical strain 4,128
same,Minimum inhibitory concentration,[5]; Streptococcus pneumoniae clinical strain 5,64
same,Minimum inhibitory concentration,[6]; Candida albicans clinical yeast strain 1,16
same,Minimum inhibitory concentration,[6]; Candida albicans clinical yeast strain 2,16
same,Minimum inhibitory concentration,[6]; Candida albicans clinical yeast strain 3,16
same,Minimum inhibitory concentration,[6]; Candida albicans clinical yeast strain 4,16
same,Minimum inhibitory concentration,[6]; Candida albicans clinical yeast strain 5,32
same,Minimum inhibitory concentration,[7]; C. glabrata clinical yeast strain 1,16
same,Minimum inhibitory concentration,[7]; C. glabrata clinical yeast strain 2,16
same,Minimum inhibitory concentration,[7]; C. glabrata clinical yeast strain 3,8
same,Minimum inhibitory concentration,[7]; C. glabrata clinical yeast strain 4,64
same,Minimum inhibitory concentration,[8]; C. parapsilosis clinical yeast strain 1,64
same,Minimum inhibitory concentration,[8]; C. parapsilosis clinical yeast strain 2,64
same,Minimum inhibitory concentration,[8]; C. parapsilosis clinical yeast strain 3,32
same,Minimum inhibitory concentration,[8]; C. parapsilosis clinical yeast strain 4,16
same,Minimum inhibitory concentration,[9],16
same,Minimum inhibitory concentration,[10]; Escherichia coli clinical strain 1,1
same,Minimum inhibitory concentration,[10]; Escherichia coli clinical strain 2,16
same,Minimum inhibitory concentration,[10]; Escherichia coli clinical strain 3,16
same,Minimum inhibitory concentration,[10]; Escherichia coli clinical strain 4,32
same,Minimum inhibitory concentration,[10]; Escherichia coli clinical strain 5,32
same,Minimum inhibitory concentration,[11]; Klebsiella pneumoniae clinical strain 1,>128
same,Minimum inhibitory concentration,[11]; Klebsiella pneumoniae clinical strain 2,>128
same,Minimum inhibitory concentration,[11]; Klebsiella pneumoniae clinical strain 3,>128
same,Minimum inhibitory concentration,[11]; Klebsiella pneumoniae clinical strain 4,>128
same,Minimum inhibitory concentration,[11]; Klebsiella pneumoniae clinical strain 5,64
same,Minimum inhibitory concentration,[12]; Pseudomonas aeruginosa clinical strain 1,32
same,Minimum inhibitory concentration,[12]; Pseudomonas aeruginosa clinical strain 2,64
same,Minimum inhibitory concentration,[12]; Pseudomonas aeruginosa clinical strain 3,64
same,Minimum inhibitory concentration,[12]; Pseudomonas aeruginosa clinical strain 4,64
same,Minimum inhibitory concentration,[12]; Pseudomonas aeruginosa clinical strain 5,16

# Source: patent US10457709B2, “Antimicrobial peptides, their variants and uses” (priority 2015, dated 2019)
